In patent US8343539B2, “Compounds that bind α5β1 integrin and methods of use” (Regents of the University of Minnesota, priority 2006, dated 2013):
Entries after “also recorded” stand apart in the source; their conditions may differ. Where no end group is shown, it is not given here. (C16)2 = not defined here

Legend:
integrin α5β1 = molecular target: T1, integrin α5β1 (Homo sapiens, UniProt P05556+P08648); assay: Adhesion blocking with anti-integrin α5β1 antibody (JBS5); type: cell-based; settings: 1 hour
T1 construct: endogenous in cells; host or cells: HUVEC (human umbilical vein endothelial cells)
T1 sequence (P08648 42-894 limits assumed): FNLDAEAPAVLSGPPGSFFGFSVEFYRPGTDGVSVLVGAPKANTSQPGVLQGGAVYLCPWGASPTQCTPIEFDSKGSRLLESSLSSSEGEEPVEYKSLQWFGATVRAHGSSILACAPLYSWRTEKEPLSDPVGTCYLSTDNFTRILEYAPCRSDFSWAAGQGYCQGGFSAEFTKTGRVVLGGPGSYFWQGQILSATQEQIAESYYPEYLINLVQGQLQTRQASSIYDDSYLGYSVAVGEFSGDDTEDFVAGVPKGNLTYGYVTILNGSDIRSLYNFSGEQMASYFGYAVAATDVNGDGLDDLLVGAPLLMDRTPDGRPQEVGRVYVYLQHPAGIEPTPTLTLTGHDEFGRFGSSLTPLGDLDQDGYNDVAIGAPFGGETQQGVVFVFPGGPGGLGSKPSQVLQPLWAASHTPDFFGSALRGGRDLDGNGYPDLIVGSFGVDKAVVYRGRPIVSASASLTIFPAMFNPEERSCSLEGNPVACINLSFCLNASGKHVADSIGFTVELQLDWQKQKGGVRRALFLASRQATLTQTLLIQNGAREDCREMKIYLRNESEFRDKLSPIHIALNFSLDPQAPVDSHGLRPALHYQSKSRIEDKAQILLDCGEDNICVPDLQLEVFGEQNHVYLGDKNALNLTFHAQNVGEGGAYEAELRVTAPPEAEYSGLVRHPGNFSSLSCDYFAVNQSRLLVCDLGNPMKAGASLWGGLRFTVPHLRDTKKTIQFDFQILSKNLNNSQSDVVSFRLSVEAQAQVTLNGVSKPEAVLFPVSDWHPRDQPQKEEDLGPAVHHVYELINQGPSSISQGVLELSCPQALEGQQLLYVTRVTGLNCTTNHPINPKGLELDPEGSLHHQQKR
T1 sequence (P08648 895-1049 partner limits assumed): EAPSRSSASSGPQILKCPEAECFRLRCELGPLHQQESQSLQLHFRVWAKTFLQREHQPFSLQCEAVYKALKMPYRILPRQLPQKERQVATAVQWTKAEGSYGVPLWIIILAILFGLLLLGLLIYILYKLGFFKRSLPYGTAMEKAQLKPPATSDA
T1 sequence (P05556 21-798): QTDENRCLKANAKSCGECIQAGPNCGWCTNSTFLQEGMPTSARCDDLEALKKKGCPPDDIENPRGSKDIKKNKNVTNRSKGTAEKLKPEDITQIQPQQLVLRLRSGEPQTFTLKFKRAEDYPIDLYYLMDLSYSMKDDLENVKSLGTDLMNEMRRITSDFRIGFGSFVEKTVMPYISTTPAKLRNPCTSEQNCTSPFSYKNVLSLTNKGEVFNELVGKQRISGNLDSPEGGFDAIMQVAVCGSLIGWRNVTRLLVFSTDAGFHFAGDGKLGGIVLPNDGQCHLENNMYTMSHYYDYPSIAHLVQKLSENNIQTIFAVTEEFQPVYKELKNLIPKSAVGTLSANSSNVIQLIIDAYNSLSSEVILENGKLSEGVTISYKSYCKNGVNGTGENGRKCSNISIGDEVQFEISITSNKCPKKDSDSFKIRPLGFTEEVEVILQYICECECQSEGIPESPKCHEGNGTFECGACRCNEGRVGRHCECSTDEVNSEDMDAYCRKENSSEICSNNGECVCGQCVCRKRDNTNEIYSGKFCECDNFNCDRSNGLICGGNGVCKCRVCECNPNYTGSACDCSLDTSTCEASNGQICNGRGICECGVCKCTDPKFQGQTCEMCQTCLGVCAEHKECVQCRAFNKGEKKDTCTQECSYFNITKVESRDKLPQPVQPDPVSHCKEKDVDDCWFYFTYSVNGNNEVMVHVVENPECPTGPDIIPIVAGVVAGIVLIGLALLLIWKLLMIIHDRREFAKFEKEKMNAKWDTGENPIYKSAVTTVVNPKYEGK
Experimental: Adhesion blocking experiments: Blocking experiments were done using mouse anti-human integrin […] (P1D6), β1 (P5D2), α5β1 (JBS5), and αvβ3 (LM609) monoclonal antibodies (Chemicon Int.). All surfaces were transferred to 24- or 12-well plates and pre-incubated in 0.1% BSA media as described above. HUVECs were prepared and counted as described in the cell adhesion protocol. Cells were blocked by mixing the cell suspension with the appropriate antibody in 0.1% BSA media, and incubating for 30 minutes at 37° C., 5% CO2 with constant agitation. Blocked cells were then released onto LB and FN surfaces and allowed to adhere for 1 hour at 37° C., 5% CO2. For all blocking experiments, cells were seeded at 249 cells/mm^2 (lower seeding density was used here to reduce the amount of antibodies needed to block cell adhesion) and a final antibody concentration in each well was 20 μg/ml. Following incubation, surfaces were washed, and adhered cells were quantified as described in the cell adhesion protocol.

HUVECs [1] = assay: Actin cytoskeleton and focal adhesion staining; type: cell-based, human; settings: 1-72 hours
Experimental: Actin cytoskeleton and focal adhesion staining: Surface transferring, cell seeding, incubation, and fixing were done as described above. Staining for the actin cytoskeleton, focal adhesions, and nucleus of attached cells was done using the Actin Cytoskeleton and Focal Adhesion Staining Kit following the manufacturer's protocol (Chemicon Int.) and using 1:350 dilution for anti-vinculin antibody, 1:200 for the secondary antibody, approximately 1:1000 dilution (equivalent to 1 unit/surface) for TRITC-conjugated phalloidin and 1:1000 for DAPI. After washing, surfaces were mounted onto glass slides and stored at 4° C. protected from light. A confocal microscope (BIORAD Multiphoton Confocal 1024) was used for imaging.

HUVECs [2] = assay: Extracellular fibronectin production by HUVECs (Example 1); type: cell-based, human
Experimental: Cell spreading and fibronectin production experiments: Surface transferring, cell seeding, and incubation were done in the same manner as in the adhesion experiment, with a cell density of 497 cells/mm^2, and incubation times of 1, 12, 24, 48, and 72 hour. At the end of each incubation, the surfaces were removed, washed with […] of PBS, and fixed in 1 ml of 4% paraformaldehyde (Sigma) in PBS for 15 minutes at 37° C., 5% CO2. After washing with PBS, surfaces were first labeled for secreted fibronectin: surfaces were subjected to a blocking solution (0.1% BSA in PBS) for 30 minutes, incubated for 1 hour with a primary antibody specific for secreted fibronectin (mouse anti-human fibronectin (P1H11) monoclonal antibody (Chemicon Int.) at a 1:500 dilution in blocking solution, and then for 45 minutes with a secondary antibody (IgG fluorescein (FITC) conjugated antibody; Chemicon Int.) at a 1:200 dilution in PBS. As a final step, cell membranes and nuclei were stained using the Image-iT™ LIVE Plasma Membrane and Nuclear Labeling Kit following the manufacturer's protocol for labeling fixed cells (Molecular Probes). After final washing, surfaces were mounted onto glass slides and stored at 4° C. protected from light. An inverted fluorescent microscope (Nikon Eclipse TE200 with Pixcell II LCM) was used for imaging. Fibronectin production was assessed visually, by comparing 10-20 fluorescence images from two samples for each substrate (two independent experiments performed at different days). Cell spreading was quantified from two samples per substrate (two independent experiments performed at different days) by measuring cell area with the NIH imaging software.

HUVECs [3] = assay: HUVEC adhesion timed experiments on LB membranes (Example 2); type: cell-based, human
Experimental: Surface preparation: Each peptide-amphiphile was used to form homogenous LB membranes as in previous work (Kokkoli Langmuir 2004; 20:2397-2404), except that both the water and 15 mm mica disks used had been autoclaved for sterility. All depositions were done at a surface pressure between 41 and 47 mN/m, well below the collapse pressure and in the liquid-condensed or solid phase. Approximately 90 minutes before cells were seeded on the LB films to begin cell adhesion experiments, mica surfaces were transferred into 1× phosphate buffered saline (PBS), with particular care taken to ensure films were not exposed to air. After 5-10 minutes of equilibration, surfaces were transferred into 24-well plates containing a supplemented MCDB-131 basal media (Sigma), as described in Example 1. Following surface transfer, 24-well plates were moved to a 37° C., 5% CO2 incubator for 45-60 minutes. As a control, 22 mm diameter human fibronectin-coated coverslips (BD Biosciences), referred to as FN, were put into 12-well plates, covered with 2 ml of the supplemented media, and also incubated for 45-60 minutes.
Cell culture: Human umbilical vein endothelial cells, HUVECs (Cambrex Corporation), were cultured as described previously (see Example 1). Only cells from passage 3 were used in all studies.
Cell adhesion experiments: Flasks of HUVECs with at least 90% confluency were washed with 1×PBS, trypsinized with 0.25% Trypsin-EDTA (Fisher Scientific), and neutralized with 2% fetal bovine serum in MCDB-131 basal media. The suspended cells from all flasks were placed in one 50 ml centrifuge tube and centrifuged at 1000 rpm for 5 minutes. The media was removed and the cell pellet was resuspended in the supplemented media described above. A hemocytometer was used to count the cells and then 497 cells/mm^2 were seeded onto both LB and FN surfaces. Surfaces were incubated with cells at 37° C., 5% CO2 for 1, 4, or 12 hours. Cell adhesion following these times was determined using the CyQuant cell proliferation assay kit (Molecular Probes), which measures the fluorescence of a cellular nucleic acid-binding dye using the SpectraMAX GeminiXS plate reader (Molecular Devices). Standard calibration curves were created within each experiment for both 12- and 24-well plates.

Substance: (C16)2-Glu-C2-KSSPHSRNSGSGSGSGSGRGDSP ({(C16)2-Glu-C2}-KSSPHSRNSGSGSGSGSGRGDSP; not fully specified; reading uncertain) [PR_b]
- reduction in cell adhesion compared to adhesion of non-blocked cells (integrin α5β1; anti-α5β1 antibody 20 μg/ml, HUVECs 249 cells/mm^2): 77.55±1.50%
- Integrin mediating HUVEC adhesion to the surface (integrin α5β1; antibody blocking): α5β1-mediated; also recorded: specific for α5β1 integrins
- Actin stress fibers and focal contacts (HUVECs [1]): displayed actin stress fibers and focal contacts
- Cytoskeletal organization and focal adhesion compared to FN (HUVECs [1]): better-developed cytoskeletal structure compared to FN; also recorded: stronger cytoskeletal organization and focal adhesion formation
- Fibronectin secretion by adhered HUVECs (HUVECs [2]; after 48 hours): fully covered with secreted fibronectin
- Amount of fibronectin secretion, PR_b versus FN (HUVECs [2]; all times examined): comparable for both substrates
- HUVEC adhesion compared with FN, overall (HUVECs [3]; 1, 4 and 12 hours): outperform the positive control fibronectin at all times; also recorded: better than FN at all times; also recorded: statistically better than both Pr_f and the control FN
- HUVEC adhesion compared with Pr_c (HUVECs [3]; 1, 4 and 12 hours): significantly better than Pr_c at all times except 1 hour
- HUVEC adhesion compared with Pr_d (HUVECs [3]; 1, 4 and 12 hours): better than Pr_d at all times except 4 hours
- HUVEC adhesion compared with Pr_f (HUVECs [3]; 1, 4 and 12 hours): statistically better than both Pr_f and the control FN; also recorded: much better
- HUVEC adhesion level (description) (HUVECs [3]; 1, 4 and 12 hours): excellent adhesion at all times; also recorded: highest level of adhesion
- HUVEC adhesion compared with Pr_e (HUVECs [3]; 1 and 4 hours): no statistical difference
- HUVEC adhesion compared with Pr_e (HUVECs [3]; 12 hours): outperforms Pr_e; also recorded: better than Pr_e
- Maintenance / decay of HUVEC adhesion over time (HUVECs [3]; up to 12 hours): most consistent adhesion over 12 hours; also recorded: smallest amount of decay over 12 hours; also recorded: least drop-off between 4 and 12 hours; also recorded: least amount of decay
